Molecules are shown by their SMILES.

Test [1] concerns Pseudoperonospora cubensis. Put plainly: Fungicidal activity against Pseudoperonospora cubensis at 6.25 mg/L relative to untreated control. The format is functional.
For test [2], the system named is Pseudoperonospora cubensis. Put plainly: Fungicidal activity against Pseudoperonospora cubensis at 200 mg/L relative to untreated control. It counts as functional.
Test [3] deals with Pseudoperonospora cubensis. Put plainly: Fungicidal activity against Pseudoperonospora cubensis at 100 mg/L relative to untreated control. It counts as functional.
Test [4] concerns Cytospora. Briefly: Fungicidal activity against Cytospora mandshurica Miura under green house condition in presence of 96% compound. The format is functional, organism-based.
Test [5] concerns Pseudoperonospora cubensis. Put plainly: Fungicidal activity against Pseudoperonospora cubensis at 25 mg/L relative to untreated control. The format is functional.
Test [6] deals with Cytospora. Briefly: Fungicidal activity against Cytospora mandshurica Miura under green house condition in presence of 20% compound. It counts as functional, organism-based.
Test [7] relates to Cytospora. Put plainly: Fungicidal activity against Cytospora mandshurica Miura at 500 mg/L of 20% compound under field trials conditions relative to untreated control. It counts as functional.
The subject of test [8] is Pseudoperonospora cubensis. Put plainly: Fungicidal activity against Pseudoperonospora cubensis at 50 mg/L relative to untreated control. The format is functional.
The subject of test [9] is Cytospora. Briefly: Fungicidal activity against Cytospora mandshurica Miura at 1000 mg/L of 20% compound under field trials condition relative to untreated control. The format is functional.
For test [10], the system named is Cytospora. Briefly: Fungicidal activity against Cytospora mandshurica Miura under green house condition in presence of 98% compound. The format is functional, organism-based.
Test [11] deals with Cytospora. Put plainly: Fungicidal activity against Cytospora mandshurica Miura at 1000 mg/L of 25% compound under field trials condition relative to untreated control. The format is functional.

Broadly, the EC50 is the concentration needed to bring the measured effect to its halfway point. For `CCCCc1c(C)c2ccc(OCc3ccccc3/C(=C\OC)C(=O)OC)cc2oc1=O` [Coumoxystrobin], the Activity in test [1] was found to be 95%; in [2], 100%; in test [3], 100%; in test [5], 100%; in test [8] it was 100%. The EC50 with Cytospora [4] was determined as 1.83 mg/L; with Cytospora [6] it was 1.72 mg/L. Besides, the Efficacy is on record as 88.5% with Cytospora [7] and 97.3% in the test on Cytospora [9].
Take `CO/C=C(/C(=O)OC)c1ccccc1COc1ccc2c3c(c(=O)oc2c1)CCCC3`: the Activity was 75% in [1] and 100% in test [5].
For `CO/C=C(/C(=O)OC)c1ccccc1COc1ccc2ccc(=O)oc2c1`, the Activity in test [1] was found to be 0%; in test [2] it was 100%; in test [3] it was 100%; in [5] it was 50%; in test [8], 70%.
With `CO/N=C(/C(=O)OC)c1ccccc1COc1ccccc1C` [KRESOXIM-METHYL], the Activity in test [1] was found to be 0%; in test [5], 35%.
As for `CO/C=C(/C(=O)OC)c1ccccc1COc1cc2oc(=O)cc(C)c2cc1C(C)=O`, the Activity in test [1] came out at 0%; in test [2], 90%; in test [3], 85%; in [5], 50%; in test [8], 80%.
As for `CO/C=C(/C(=O)OC)c1ccccc1COc1ccc2c(C(C)C)cc(=O)oc2c1`, the Activity was 50% in test [1]; 100% in test [2]; 100% in test [3]; 95% in test [5]; 100% in [8].
Regarding `CO/C=C(/C(=O)OC)c1ccccc1Oc1cc(Oc2ccccc2C#N)ncn1` [AZOXYSTROBIN], the Activity amounted to 95% in [1] and 100% in test [5]. The EC50 with Cytospora [10] was 2.78 mg/L. The molecule further showed an Efficacy with Cytospora [11] of 73.5%.
`CO/C=C(/C(=O)OC)c1ccccc1COc1ccc2oc(=O)cc(C)c2c1`: the Activity stood at 0% in test [1]; 85% in [2]; 60% in [3]; 0% in test [5]; 30% in test [8].
For `COC(=O)N(OC)c1ccccc1COc1ccc2c(C)c(C)c(=O)oc2c1C`, the Activity was determined as 0% in test [1]; 90% in test [2]; 80% in [3]; 50% in test [5]; 75% in test [8].
For `CO/N=C(/C(=O)OC)c1ccccc1COc1ccc2c(C)c(C)c(=O)oc2c1C` the same measures were 40%, 95%, 85%, 50% and 60%.
As to `CO/C=C(/C(=O)OC)c1ccccc1COc1ccc2c(-c3ccc(C(F)(F)F)cc3)cc(=O)oc2c1`, the Activity in test [2] is given as 85%; in test [3] it was 70%.
`CO/N=C(/C(=O)OC)c1ccccc1COc1ccc2c(C)c(Cl)c(=O)oc2c1`: the Activity in test [1] worked out at 65%; in test [2] it was 100%; in test [3], 100%; in test [5], 85%; in test [8], 90%.
Take `CO/C=C(/C(=O)OC)c1ccccc1COc1ccc2c(C(F)(F)F)cc(=O)oc2c1`: the Activity in [1] was 50%; in test [2], 100%; in test [3], 95%; in [5], 70%; in test [8], 80%.
`CCCCCCc1c(C)c2ccc(OCc3ccccc3/C(=C\OC)C(=O)OC)cc2oc1=O`: the Activity in test [1] is given as 80%; in test [2], 100%; in test [3], 100%; in test [5] it was 100%; in test [8], 100%.
`CO/C=C(/C(=O)OC)c1ccccc1COc1ccc2c(C)c(C)c(=O)oc2c1`: the Activity in [1] is listed as 85%; in test [2], 100%; in test [3] it was 100%; in [5] it was 100%; in [8] it was 100%.
`CO/C=C(/C(=O)OC)c1ccccc1COc1ccc2c(-c3ccc(Cl)nc3)cc(=O)oc2c1`: the Activity in test [1] turned out to be 0%; in test [2], 90%; in test [3] it was 80%; in test [5], 40%; in [8], 75%.
For `CO/C=C(/C(=O)OC)c1ccccc1COc1ccc2c(-c3ccccc3)cc(=O)oc2c1` the same measures were 50%, 100%, 100%, 60% and 80%.
Consider `CO/C=C(/C(=O)OC)c1ccccc1COc1ccc2c(-c3ccccc3)cc(=O)oc2c1C`, for which the Activity in test [1] is given as 30%; in [2], 95%; in test [3], 90%; in test [5] it was 50%; in test [8] it was 90%.
For the molecule `CO/C=C(/C(=O)OC)c1ccccc1COc1ccc2c(C)c(F)c(=O)oc2c1`, the Activity in test [1] came out at 60%; in test [2] it was 100%; in test [3], 100%; in test [5], 95%; in [8], 100%.
Regarding `CCCc1c(C)c2ccc(OCc3ccccc3/C(=C\OC)C(=O)OC)cc2oc1=O`, the Activity was found to be 0% in test [1]; 100% in test [2]; 80% in [3]; 20% in test [5]; 30% in [8].
In [2], `CO/C=C(/C(=O)OC)c1ccccc1COc1ccc2c(-c3ccc(Cl)cc3)cc(=O)oc2c1` returned an Activity of 70%.
On the same count and under the same terms, the figure for `CO/C=C(/C(=O)OC)c1ccccc1COc1cccc2c(C)c(C)c(=O)oc12` is 0%; for `CO/C=C(/C(=O)OC)c1ccccc1COc1ccc2c(C)cc(=O)oc2c1C(C)=O` it is 60%; for `CO/C=C(/C(=O)OC)c1ccccc1COc1ccc2oc(=O)c(C)c(C)c2c1` it is 70%.
As for `CCCCc1c(C)c2ccc(OCc3ccccc3N(OC)C(=O)OC)cc2oc1=O`, the Activity is on record as 50% in test [1]; 100% in test [2]; 100% in test [3]; 75% in test [5]; 90% in test [8].
As to `CO/C=C(/C(=O)OC)c1ccccc1COc1ccc2c(C)c(Cl)c(=O)oc2c1`, the Activity in test [1] is listed as 75%; in test [2] it was 100%; in [3], 100%; in test [5] it was 100%; in test [8], 100%.
On to `CO/C=C(/C(=O)OC)c1ccccc1COc1cc(=O)oc2ccccc12`, for which the Activity in test [1] is 0%; in test [2] it was 85%; in test [3] it was 70%; in [5], 0%; in [8] it was 30%.
As for `CNC(=O)/C(=N/OC)c1ccccc1COc1ccc2c(C)c(C)c(=O)oc2c1C`, the Activity in test [1] is reported as 0%; in test [2] it was 95%; in test [3], 85%; in test [5] it was 20%; in test [8], 30%.
For `CCc1c(C)c2ccc(OCc3ccccc3/C(=C\OC)C(=O)OC)cc2oc1=O` the same measures were 0%, 100%, 100%, 20% and 80%.
As to `CO/C=C(/C(=O)OC)c1ccccc1COc1cc2oc(=O)cc(C)c2cc1/C(C)=N\OC`, the Activity in test [2] came to 80%.
Take `CO/C=C(/C(=O)OC)c1ccccc1COc1ccc2c3c(c(=O)oc2c1C)CCCC3`: the Activity in test [2] is 50%.
The same measure, in the same setting: the figure for `CO/C=C(/C(=O)OC)c1ccccc1COc1ccc2c3c(c(=O)oc2c1C)CCC3` is 0%.
Turning to `CO/C=C(/C(=O)OC)c1ccccc1COc1ccc2c(C)cc(=O)oc2c1`, the Activity in [1] is recorded as 45%; in test [2] it was 100%; in test [3] it was 100%; in test [5], 97%; in test [8], 100%.
On to `CO/C=C(/C(=O)OC)c1ccccc1COc1ccc2c(C)cc(=O)oc2c1/C(C)=N/OC`, for which the Activity in test [2] was found to be 30%.
For the molecule `COC(=O)N(OC)c1ccccc1COc1ccc2c(C)c(C)c(=O)oc2c1`, the Activity in test [1] was found to be 65%; in test [2] it was 100%; in [3] it was 100%; in [5], 85%; in [8], 100%.
On to `CO/C=C(/C(=O)OC)c1ccccc1COc1cccc(C(F)(F)F)n1` [PICOXYSTROBIN], for which the results for the Activity in [1] and in test [5] were 50% and 95%, respectively.
In the case of `CCc1cc(=O)oc2cc(OCc3ccccc3/C(=C\OC)C(=O)OC)ccc12`, the Activity in test [1] amounted to 50%; in test [2], 100%; in test [3], 100%; in test [5], 100%; in test [8] it was 100%.
`CO/C=C(/C(=O)OC)c1ccccc1COc1ccc2c3c(c(=O)oc2c1)CCC3`: the Activity turned out to be 40% in [1] and 100% in test [5].
On to `CCCc1cc(=O)oc2cc(OCc3ccccc3/C(=C\OC)C(=O)OC)ccc12`, for which the Activity in test [1] was determined as 55%; in test [2], 100%; in [3], 100%; in test [5], 95%; in [8], 100%.
